Values quoted from earlier work as cited in article PMC10882020 (Heliyon, 2024).

Experiments:
ACE = conditions: read-out: ACE inhibitory activity IC50; ref 11 (Zheng et al.)
[1] = orally administered at a dose of 100–150 mg/kg; ref 11 (Zheng et al.)

Sequence: RGQVIYVL
- IC50 (ACE): 38.2 µM
- antihypertensive effects [1]: significant antihypertensive effects
